For this experiment, the system named is c-myc in 22RV-1 cells. Kind of experiment: Human c-myc ELISA assay. The class given is cell-based. As to conditions: Homo sapiens; for Emax: 22Rv1, 18 h, read-out: Degradation of BRD4: Maximum inhibition (%) c-Myc ELISA in 22RV1 cells; for DC50: 22Rv1, read-out: Degradation of BRD4: DC50 (uM) c-Myc ELISA in 22RV1 cells. The method in brief:
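c-myc levels measured by ELISA in RIPA lysates of 22RV-1 cells, calibrated with a 333-0 pg/ml standard curve. Lysates came from cells exposed for 18 h to an 8-point, 1:3 dose series starting at 300 nM or 1 μM final in 0.1% DMSO. Suppression potency given as DC50.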

The DC50 is the concentration giving 50% degradation. Regarding `Cc1ncsc1-c1ccc(CNC(=O)[C@@H]2C[C@@H](O)CN2C(=O)[C@@H](NC(=O)COCCOc2cccc(NC(=O)C[C@@H]3N=C(c4ccc(Cl)cc4)c4c(sc(C)c4C)-n4c(C)nnc43)c2)C(C)(C)C)cc1` [Example 81], the Emax turned out to be 99% and the DC50 fell in the range of 0.01 to 0.1 µM.
The matching figures for `Cc1ncsc1-c1ccc(CNC(=O)[C@@H]2C[C@@H](O)CN2C(=O)[C@@H](NC(=O)COCCCCCCNC(=O)C[C@@H]2N=C(c3ccc(Cl)cc3)c3c(sc(C)c3C)-n3c(C)nnc32)C(C)(C)C)cc1` [Example 82]: 100% and 0.01 to 0.1 µM.
Take `Cc1ncsc1-c1ccc(CNC(=O)[C@@H]2C[C@@H](O)CN2C(=O)[C@@H](NC(=O)COCCOCCOCCOc2ccc3c(c2)c2c(C(N)=O)cc(-c4c(C)noc4C)cc2n3Cc2ccccc2)C(C)(C)C)cc1` [Example 83]: the Emax worked out at 98% and the half-maximal degradation concentration (DC50) lay within 0.01 to 0.1 µM.
For `Cc1ncsc1-c1ccc(CNC(=O)[C@@H]2C[C@@H](O)CN2C(=O)[C@@H](NC(=O)CCc2cccc(OCCNC(=O)C[C@@H]3N=C(c4ccc(Cl)cc4)c4c(sc(C)c4C)-n4c(C)nnc43)c2)C(C)(C)C)cc1` [Example 84], the Emax amounted to 100% and the 50% degradation concentration (DC50) is less than 0.01 µM.
The matching figures for `Cc1ncsc1-c1ccc([C@H](C)NC(=O)[C@@H]2C[C@@H](O)CN2C(=O)[C@@H](NC(=O)CCc2cccc(OCCNC(=O)C[C@@H]3N=C(c4ccc(Cl)cc4)c4c(sc(C)c4C)-n4c(C)nnc43)c2)C(C)(C)C)cc1` [Example 85]: 100% and less than 0.01 µM.
The matching figures for `Cc1ncsc1-c1ccc(CNC(=O)[C@@H]2C[C@@H](O)CN2C(=O)[C@@H](NC(=O)COCCn2cc(-c3ccc([C@H](C)NC(=O)C[C@@H]4N=C(c5ccc(Cl)cc5)c5c(sc(C)c5C)-n5c(C)nnc54)cc3)cn2)C(C)(C)C)cc1` [Example 86]: 80% and 0.1 to 1 µM.
As for `Cc1ncsc1-c1ccc(CNC(=O)[C@@H]2C[C@@H](O)CN2C(=O)[C@@H](NC(=O)COc2ccccc2C(=O)N2CC[C@H](NC(=O)C[C@@H]3N=C(c4ccc(Cl)cc4)c4c(sc(C)c4C)-n4c(C)nnc43)C2)C(C)(C)C)cc1` [Example 87], the Emax amounted to 96.4% and the DC50 was in the range of 0.01 to 0.1 µM.
`Cc1ncsc1-c1ccc(CNC(=O)[C@@H]2C[C@@H](O)CN2C(=O)[C@@H](NC(=O)COCCC(=O)N2CC[C@H](NC(=O)C[C@@H]3N=C(c4ccc(Cl)cc4)c4c(sc(C)c4C)-n4c(C)nnc43)C2)C(C)(C)C)cc1` [Example 88]: the Emax came to 85.9% and the half-maximal degradation concentration (DC50) lay within 0.1 to 1 µM.
The matching figures for `Cc1ncsc1-c1ccc(CNC(=O)C2C[C@@H](O)CN2C(=O)[C@@H](NC(=O)COCCOCCOCCOCCOc2ccc3c(c2)c2c(C(N)=O)cc(-c4c(C)noc4C)cc2n3Cc2ccccc2)C(C)(C)C)cc1` (stereo partly drawn) [Example 89, 9-Benzyl-2-(dimethyl-1,2-oxazol-4-yl)-6{[1-({1-[4-hydroxy-2-({[4-(4-methyl-1,3-thiazol-5-yl)phenyl]methyl}carbamoyl)pyrrolidin-1-yl]-3,3-dimethyl-1-oxobutan-2-yl}carbamoyl)-2,5,8,11-tetraoxatridecan-13-yl]oxy}-9H-carbazole-4-carboxamide]: 99.5% and 0.01 to 0.1 µM.
Take `Cc1ncsc1-c1ccc(CNC(=O)[C@@H]2C[C@@H](O)CN2C(=O)C(c2cc(OCCCCCNC(=O)C[C@@H]3N=C(c4ccc(Cl)cc4)c4c(sc(C)c4C)-n4c(C)nnc43)no2)C(C)C)cc1` (stereo partly drawn) [Example 90]: the Emax worked out at 100% and the DC50 was less than 0.01 µM.
The matching figures for `Cc1ncsc1-c1ccc(CNC(=O)[C@@H]2C[C@@H](O)CN2C(=O)[C@@H](NC(=O)c2ccn(CCOCCNC(=O)C[C@@H]3N=C(c4ccc(Cl)cc4)c4c(sc(C)c4C)-n4c(C)nnc43)n2)C(C)(C)C)cc1` [Example 91]: less than 5% and more than 1 µM.
The matching figures for `Cc1ncsc1-c1ccc(CNC(=O)[C@@H]2C[C@@H](O)CN2C(=O)[C@@H](NC(=O)Cc2ccc(OCCNC(=O)C[C@@H]3N=C(c4ccc(Cl)cc4)c4c(sc(C)c4C)-n4c(C)nnc43)cn2)C(C)(C)C)cc1` [Example 92]: 91.1% and 0.1 to 1 µM.
The matching figures for `Cc1ncsc1-c1ccc(CNC(=O)[C@@H]2C[C@@H](O)CN2C(=O)[C@@H](NC(=O)Cc2ccc(N3CC[C@H](NC(=O)C[C@@H]4N=C(c5ccc(Cl)cc5)c5c(sc(C)c5C)-n5c(C)nnc54)C3)cn2)C(C)(C)C)cc1` [Example 93]: 74.2% and 0.1 to 1 µM.
`Cc1ncsc1-c1ccc(CNC(=O)C2C[C@@H](O)CN2C(=O)[C@@H](NC(=O)COCCCOCCOc2cccc(NC(=O)C[C@@H]3N=C(c4ccc(Cl)cc4)c4c(sc(C)c4C)-n4c(C)nnc43)c2)C(C)(C)C)cc1` (stereo partly drawn) [Example 94]: the Emax was 98.5% and the 50% degradation concentration (DC50) is less than 0.01 µM.
The matching figures for `Cc1ncsc1-c1ccc(CNC(=O)[C@@H]2C[C@@H](O)CN2C(=O)[C@@H](NC(=O)COCc2ccc(Oc3cccc(NC(=O)C[C@@H]4N=C(c5ccc(Cl)cc5)c5c(sc(C)c5C)-n5c(C)nnc54)c3)cc2)C(C)(C)C)cc1` [Example 95]: 99.5% and less than 0.01 µM.
The matching figures for `Cc1ncsc1-c1ccc(CNC(=O)C2C[C@@H](O)CN2C(=O)[C@@H](NC(=O)c2cn3cc(OCCNC(=O)C[C@@H]4N=C(c5ccc(Cl)cc5)c5c(sc(C)c5C)-n5c(C)nnc54)ccc3n2)C(C)(C)C)cc1` (stereo partly drawn) [Example 96]: 67.9% and 0.1 to 1 µM.
The matching figures for `Cc1ncsc1-c1ccc(CNC(=O)[C@@H]2C[C@@H](O)CN2C(=O)[C@@H](NC(=O)Cc2ccc3cc(CCNC(=O)C[C@@H]4N=C(c5ccc(Cl)cc5)c5c(sc(C)c5C)-n5c(C)nnc54)oc3c2)C(C)(C)C)cc1` [Example 97]: 100% and less than 0.01 µM.
For the compound `Cc1ncsc1-c1ccc(CNC(=O)[C@@H]2C[C@@H](O)CN2C(=O)[C@@H](NC(=O)COCCOCCOCCNC(=O)CC2N=C(c3ccc(Cl)cc3)c3c(sc(C)c3C)-n3c(C)nnc32)C(C)(C)C)cc1` (stereo partly drawn) [Example 98], the Emax was determined as 100% and the half-maximal degradation concentration (DC50) lay in the range of 0.01 to 0.1 µM.
The matching figures for `Cc1ncsc1-c1ccc(CNC(=O)[C@@H]2C[C@@H](O)CN2C(=O)[C@@H](NC(=O)c2cn3ccc(OCCCNC(=O)C[C@@H]4N=C(c5ccc(Cl)cc5)c5c(sc(C)c5C)-n5c(C)nnc54)cc3n2)C(C)(C)C)cc1` [Example 99]: 67% and 0.1 to 1 µM.
The matching figures for `Cc1ncsc1-c1ccc(CNC(=O)[C@@H]2C[C@@H](O)CN2C(=O)[C@@H](NC(=O)COCCCSCCNC(=O)C[C@@H]2N=C(c3ccc(Cl)cc3)c3c(sc(C)c3C)-n3c(C)nnc32)C(C)(C)C)cc1` [Example 100]: 99% and 0.01 to 0.1 µM.
The matching figures for `Cc1ncsc1-c1ccc(CNC(=O)[C@@H]2C[C@@H](O)CN2C(=O)[C@@H](NC(=O)COCCCS(=O)(=O)CCNC(=O)C[C@@H]2N=C(c3ccc(Cl)cc3)c3c(sc(C)c3C)-n3c(C)nnc32)C(C)(C)C)cc1` [Example 101]: 88.3% and 0.1 to 1 µM.
For `Cc1ncsc1-c1ccc(CNC(=O)[C@@H]2C[C@@H](O)CN2C(=O)[C@@H](NC(=O)CCN2CCN(CCCNC(=O)C[C@@H]3N=C(c4ccc(Cl)cc4)c4c(sc(C)c4C)-n4c(C)nnc43)CC2)C(C)(C)C)cc1` [Example 102], the Emax stood at 34.5% and the DC50 was more than 1 µM.
The matching figures for `Cc1ncsc1-c1ccc(CNC(=O)[C@@H]2C[C@@H](O)CN2C(=O)[C@@H](NC(=O)CCN2CCN(CCNC(=O)C[C@@H]3N=C(c4ccc(Cl)cc4)c4c(sc(C)c4C)-n4c(C)nnc43)CC2)C(C)(C)C)cc1` [Example 103]: 62.5% and 0.1 to 1 µM.
The matching figures for `Cc1ncsc1-c1ccc(CNC(=O)[C@@H]2C[C@@H](O)CN2C(=O)[C@@H](NC(=O)COCCOCCOCCNC(=O)C[C@H]2N=C(c3ccc(Cl)cc3)c3c(sc(C)c3C)-n3c(C)nnc32)C(C)(C)C)cc1` [Example 104]: less than 5% and more than 1 µM.
The matching figures for `Cc1ncsc1-c1ccc(CNC(=O)[C@@H]2C[C@@H](O)CN2C(=O)[C@@H](NC(=O)COCCCOCCNC(=O)CC2N=C(c3ccc(Cl)cc3)c3c(sc(C)c3C)-n3c(C)nnc32)C(C)(C)C)cc1` (stereo partly drawn) [Example 105]: 97% and 0.01 to 0.1 µM.
As to `Cc1ncsc1-c1ccc(CNC(=O)[C@@H]2C[C@@H](O)CN2C(=O)[C@@H](NC(=O)COCCCOCCNC(=O)C[C@H]2N=C(c3ccc(Cl)cc3)c3c(sc(C)c3C)-n3c(C)nnc32)C(C)(C)C)cc1` [Example 106], the Emax is less than 5% and the half-maximal degradation concentration (DC50) was more than 1 µM.
The matching figures for `Cc1ncsc1-c1ccc(CNC(=O)C2C[C@@H](O)CN2C(=O)[C@@H](NC(=O)COc2ccccc2OCCCNC(=O)C[C@@H]2N=C(c3ccc(Cl)cc3)c3c(sc(C)c3C)-n3c(C)nnc32)C(C)(C)C)cc1` (stereo partly drawn) [Example 107]: 86.6% and 0.01 to 0.1 µM.
The matching figures for `Cc1ncsc1-c1ccc([C@H](C)NC(=O)[C@@H]2C[C@@H](O)CN2C(=O)[C@@H](NC(=O)COCCOCCCOc2ccc([C@H](C)NC(=O)CC3N=C(c4ccc(Cl)cc4)c4c(sc(C)c4C)-n4c(C)nnc43)cc2)C(C)(C)C)cc1` (stereo partly drawn) [Example 108]: 95.4% and 0.1 to 1 µM.
The matching figures for `Cc1ncsc1-c1ccc([C@H](C)NC(=O)[C@@H]2C[C@@H](O)CN2C(=O)[C@@H](NC(=O)COCCOCCCOc2ccc([C@H](C)NC(=O)C[C@H]3N=C(c4ccc(Cl)cc4)c4c(sc(C)c4C)-n4c(C)nnc43)cc2)C(C)(C)C)cc1` [Example 109]: less than 5% and more than 1 µM.
In the case of `CNC[C@H](NC(=O)[C@@H]1C[C@@H](O)CN1C(=O)[C@@H](NC(=O)COCCCOCCNC(=O)C[C@@H]1N=C(c2ccc(Cl)cc2)c2c(sc(C)c2C)-n2c(C)nnc21)C(C)(C)C)c1ccc(-c2scnc2C)cc1` [Example 110], the Emax is 7.14% and the 50% degradation concentration (DC50) is more than 1 µM.
